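Each compound was tested at five concentrations against cells in 96-well plates for 48 hours. GI50 is the concentration that inhibits growth by half.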 Active and inactive are the calls of the source. Rule as the data show it: active = GI50 up to about 1.1 µM and inactive = higher.
Assays:
Test in all cases: NCI anticancer screen, dose series, 48 h
A498 = test system: A498
SK-MEL-5 = test system: SK-MEL-5
MOLT-4 = test system: MOLT-4
MDA-MB-435 = test system: MDA-MB-435
OVCAR-3 = test system: OVCAR-3
M14 = test system: M14
UACC-62 = test system: UACC-62
CCRF-CEM = test system: CCRF-CEM
UACC-257 = test system: UACC-257
DU-145 = test system: DU-145
SF-295 = test system: SF-295
NCI-H522 = test system: NCI-H522
LOX IMVI = test system: LOX IMVI
RPMI-8226 = test system: RPMI-8226
SK-OV-3 = test system: SK-OV-3
UO-31 = test system: UO-31
SF-539 = test system: SF-539
Malme-3M = test system: Malme-3M
MDA-N = test system: MDA-N
KM12 = test system: KM12

Compound | GI50 (A498) | GI50 (SK-MEL-5) | GI50 (MOLT-4) | GI50 (MDA-MB-435) | GI50 (OVCAR-3) | GI50 (M14) | GI50 (UACC-62) | GI50 (CCRF-CEM) | GI50 (UACC-257) | GI50 (DU-145) | GI50 (SF-295) | GI50 (NCI-H522) | GI50 (LOX IMVI) | GI50 (RPMI-8226) | GI50 (SK-OV-3) | GI50 (UO-31) | GI50 (SF-539) | GI50 (Malme-3M) | GI50 (MDA-N) | GI50 (KM12)
CCCCCCCCCCCCCCCCCCNc1ccn(C2OC(COP(=O)(O)OCC(COP(=O)(O)OCC3OC(n4cc(C)c(=O)[nH]c4=O)CC3N=[N+]=[N-])OCCCCCCCCCCCCCCCCCC)C(O)C2O)c(=O)n1 (stereo not given) | > 100 µM (inactive) | 86.5 µM (inactive) | 41.5 µM (inactive) | 87.1 µM (inactive) | > 100 µM (inactive) | > 100 µM (inactive) | 49.5 µM (inactive) | > 100 µM (inactive) | 50.1 µM (inactive) | > 100 µM (inactive) | > 100 µM (inactive) | 12.6 µM (inactive) | 21.2 µM (inactive) | 7.46 µM (inactive) | > 100 µM (inactive) | 17.7 µM (inactive) | 27 µM (inactive) | 27 µM (inactive) | > 100 µM (inactive) | 38.5 µM (inactive)
O=C1c2c(Br)sc(Br)c2C(=O)C1(O)O | > 100 µM (inactive) | 19.9 µM (inactive) | 33.6 µM (inactive) | 19.4 µM (inactive) | 19.4 µM (inactive) | 19.2 µM (inactive) | 76.2 µM (inactive) | 27.7 µM (inactive) | 19.8 µM (inactive) | > 100 µM (inactive) | > 100 µM (inactive) | 18.8 µM (inactive) | > 100 µM (inactive) | 46.6 µM (inactive) | > 100 µM (inactive) | 34.2 µM (inactive) | 20.8 µM (inactive) | 19.3 µM (inactive) | 36.8 µM (inactive) | > 100 µM (inactive)
COc1cccc2c1OC1c3ccccc3OCC1(O)C2 (stereo not given) | > 100 µM (inactive) | > 100 µM (inactive) | > 100 µM (inactive) | > 100 µM (inactive) | > 100 µM (inactive) | > 100 µM (inactive) | > 100 µM (inactive) | > 100 µM (inactive) | > 100 µM (inactive) | > 100 µM (inactive) | > 100 µM (inactive) | > 100 µM (inactive) | > 100 µM (inactive) | > 100 µM (inactive) | > 100 µM (inactive) | > 100 µM (inactive) | > 100 µM (inactive) | > 100 µM (inactive) | > 100 µM (inactive) | > 100 µM (inactive)
O=C1CSC(/C(=C\c2ccc(Cl)cc2)c2nc3ccccc3[nH]2)=N1 | 4.19 µM (inactive) | 12.1 µM (inactive) | 51.8 µM (inactive) | 17.9 µM (inactive) | 7.78 µM (inactive) | 22.6 µM (inactive) | 18.7 µM (inactive) | 27.6 µM (inactive) | 16.2 µM (inactive) | 13.4 µM (inactive) | 9.2 µM (inactive) | 5.3 µM (inactive) | 15.8 µM (inactive) | 33.8 µM (inactive) | 11.5 µM (inactive) | 3.03 µM (inactive) | 0.659 µM (active) | 16.7 µM (inactive) | 18.2 µM (inactive) | 13.2 µM (inactive)
Cc1cc2ccc(OC(=O)c3ccc(NC(=N)N)cc3)cc2oc1=O | 21.2 µM (inactive) | 43.8 µM (inactive) | 22.9 µM (inactive) | 20 µM (inactive) | 16.5 µM (inactive) | 28.8 µM (inactive) | 26.9 µM (inactive) | 30.5 µM (inactive) | 35.2 µM (inactive) | 76.9 µM (inactive) | 46.5 µM (inactive) | 18.3 µM (inactive) | 30.8 µM (inactive) | 22.2 µM (inactive) | 19.1 µM (inactive) | 52.4 µM (inactive) | 24.5 µM (inactive) | 22 µM (inactive) | 29.2 µM (inactive) | 21.7 µM (inactive)
Cn1c(=O)cc(/N=N\c2ccc(Cl)c(Cl)c2)[nH]c1=O | > 100 µM (inactive) | 35.2 µM (inactive) | 28.6 µM (inactive) | 21.1 µM (inactive) | 18.7 µM (inactive) | 20.3 µM (inactive) | 62.2 µM (inactive) | 24.2 µM (inactive) | 33.5 µM (inactive) | 85.5 µM (inactive) | > 100 µM (inactive) | 25.6 µM (inactive) | 19.2 µM (inactive) | 28.3 µM (inactive) | > 100 µM (inactive) | > 100 µM (inactive) | > 100 µM (inactive) | 16.1 µM (inactive) | 18.7 µM (inactive) | > 100 µM (inactive)
CCOC(=O)C(Cc1ccc(OC(=O)c2ccc(OC)cc2OC)cc1)NC(=O)C(F)(F)F (stereo not given) | 15.7 µM (inactive) | 37.3 µM (inactive) | 16.8 µM (inactive) | 18.7 µM (inactive) | 19.5 µM (inactive) | 17.5 µM (inactive) | 16.1 µM (inactive) | 19.2 µM (inactive) | 15.3 µM (inactive) | 19.8 µM (inactive) | 31.7 µM (inactive) | 17.9 µM (inactive) | 18.6 µM (inactive) | 20.3 µM (inactive) | 39 µM (inactive) | 18 µM (inactive) | 23.2 µM (inactive) | 21.3 µM (inactive) | 20 µM (inactive) | 29.4 µM (inactive)

Reference: ChEMBL document CHEMBL1201862, “PubChem BioAssay data set” (2004)
